{"source": "PubChem BioAssay AID276", "about": "(DTP/NCI, 2004)", "system": "B6C3F1 mice, Lewis lung carcinoma iv, survival T/C", "experiment": "NCI In Vivo Anticancer Drug Screen. Data for tumor model Lewis Lung Carcinoma (intravenous) in B6C3F1 mice", "conditions": "endpoint: median survival time, higher = longer survival", "outline": "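Transplantable tumor in mice; compound treated vs vehicle controls; read-out survival; value = treated/control (T/C).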", "key": {"[1]": {"conditions": "dose: 12.5 mg/kg/injection, schedule: Q01DX009 (ip), vehicle: saline with Tween-80"}, "[2]": {"conditions": "dose: 25.0 mg/kg/injection, schedule: Q01DX009 (ip), vehicle: saline with Tween-80"}, "[3]": {"conditions": "dose: 50.0 mg/kg/injection, schedule: Q01DX009 (ip), vehicle: saline with Tween-80"}, "[4]": {"conditions": "dose: 100.0 mg/kg/injection, schedule: Q01DX009 (ip), vehicle: saline with Tween-80"}, "[5]": {"conditions": "dose: 200.0 mg/kg/injection, schedule: Q01DX009 (ip), vehicle: saline with Tween-80"}, "[6]": {"conditions": "dose: 400.0 mg/kg/injection, schedule: Q01DX009 (ip), vehicle: saline with Tween-80"}, "[7]": {"conditions": "dose: 25.0 mg/kg/injection, schedule: Q01DX009 (ip), vehicle: saline"}, "[8]": {"conditions": "dose: 50.0 mg/kg/injection, schedule: Q01DX009 (ip), vehicle: saline"}, "[9]": {"conditions": "dose: 100.0 mg/kg/injection, schedule: Q01DX009 (ip), vehicle: saline"}, "[10]": {"conditions": "dose: 100.0 mg/kg/injection, schedule: Q01DX009 (ip), vehicle: Klucel (hydroxypropylcellulose) (HPC)"}, "[11]": {"conditions": "dose: 200.0 mg/kg/injection, schedule: Q01DX009 (ip), vehicle: Klucel (hydroxypropylcellulose) (HPC)"}, "[12]": {"conditions": "dose: 400.0 mg/kg/injection, schedule: Q01DX009 (ip), vehicle: Klucel (hydroxypropylcellulose) (HPC)"}, "[13]": {"conditions": "dose: 12.5 mg/kg/injection, schedule: Q01DX009 (ip), vehicle: Klucel (hydroxypropylcellulose) (HPC)"}, "[14]": {"conditions": "dose: 25.0 mg/kg/injection, schedule: Q01DX009 (ip), vehicle: Klucel (hydroxypropylcellulose) (HPC)"}, "[15]": {"conditions": "dose: 50.0 mg/kg/injection, schedule: Q01DX009 (ip), vehicle: Klucel (hydroxypropylcellulose) (HPC)"}, "[16]": {"conditions": "dose: 200.0 mg/kg/injection, schedule: Q01DX009 (ip), vehicle: saline"}}, "note": "“And” between values parts separate entries of the source, which are not always exact repeats. Equal values may be shown once. Toxic doses and inconclusive results are not listed.", "data": [{"smiles": "OCCO", "values": [{"measurement": "T/C", "setting": "dose: 0.12 % in 0.5 ml injection vol, schedule: Q01DX009 (ip), vehicle: water", "value": "107 % of control"}, {"measurement": "T/C", "setting": "dose: 0.25 % in 0.5 ml injection vol, schedule: Q01DX009 (ip), vehicle: water", "value": "109 % of control"}, {"measurement": "T/C", "setting": "dose: 0.5 % in 0.5 ml injection vol, schedule: Q01DX009 (ip), vehicle: water", "value": "95 % of control"}, {"measurement": "T/C", "setting": "dose: 1.0 % in 0.5 ml injection vol, schedule: Q01DX009 (ip), vehicle: water", "value": "99 % of control"}, {"measurement": "T/C", "setting": "dose: 2.0 % in 0.5 ml injection vol, schedule: Q01DX009 (ip), vehicle: water", "value": "97 % of control"}, {"measurement": "T/C", "setting": "dose: 4.0 % in 0.5 ml injection vol, schedule: Q01DX009 (ip), vehicle: water", "value": "99 % of control"}]}, {"smiles": "CCOC(=O)C1(c2ccccc2)C(=O)Oc2ccccc21", "note": "(stereo unspecified)", "values": [{"measurement": "T/C", "setting": "[1]", "value": "97 % of control"}, {"measurement": "T/C", "setting": "[2]", "value": "97 % of control"}, {"measurement": "T/C", "setting": "[3]", "value": "96 % of control"}, {"measurement": "T/C", "setting": "[4]", "value": "97 % of control"}, {"measurement": "T/C", "setting": "[5]", "value": "99 % of control"}, {"measurement": "T/C", "setting": "[6]", "value": "99 % of control"}]}, {"smiles": "NC1(C(=O)O)CCCC1", "values": [{"measurement": "T/C", "setting": "[7]", "value": "102 % of control"}, {"measurement": "T/C", "setting": "[8]", "value": "109 % of control and 111 % of control and 120 % of control"}, {"measurement": "T/C", "setting": "[9]", "value": "121 % of control"}]}, {"smiles": "CNNCc1ccc(C(=O)NC(C)C)cc1", "values": [{"measurement": "T/C", "setting": "[10]", "value": "153 % of control"}, {"measurement": "T/C", "setting": "[11]", "value": "151 % of control"}, {"measurement": "T/C", "setting": "[12]", "value": "200 % of control"}]}, {"smiles": "CO[C@H]1Nc2c(ccc(C)c2O)C(=O)N2C=C(/C=C/C(N)=O)C[C@@H]12", "values": [{"measurement": "T/C", "setting": "dose: 0.06 mg/kg/injection, schedule: Q01DX009 (ip), vehicle: saline + alcohol", "value": "105 % of control"}, {"measurement": "T/C", "setting": "dose: 0.12 mg/kg/injection, schedule: Q01DX009 (ip), vehicle: saline + alcohol", "value": "100 % of control"}, {"measurement": "T/C", "setting": "dose: 0.25 mg/kg/injection, schedule: Q01DX009 (ip), vehicle: saline + alcohol", "value": "113 % of control"}]}, {"smiles": "CC(=O)OCC1(C)NC(=O)c2ccccc2O1", "note": "(stereo unspecified)", "values": [{"measurement": "T/C", "setting": "[1]", "value": "114 % of control"}, {"measurement": "T/C", "setting": "[2]", "value": "96 % of control"}, {"measurement": "T/C", "setting": "[3]", "value": "100 % of control"}, {"measurement": "T/C", "setting": "[4]", "value": "104 % of control"}, {"measurement": "T/C", "setting": "[5]", "value": "114 % of control"}, {"measurement": "T/C", "setting": "[6]", "value": "100 % of control"}]}, {"smiles": "CC(O)CCC(=O)c1ccoc1", "note": "(stereo unspecified)", "values": [{"measurement": "T/C", "setting": "dose: 0.62 mg/kg/injection, schedule: Q03HX027 (ip), vehicle: saline", "value": "105 % of control"}, {"measurement": "T/C", "setting": "dose: 1.25 mg/kg/injection, schedule: Q03HX027 (ip), vehicle: saline", "value": "97 % of control"}, {"measurement": "T/C", "setting": "dose: 2.5 mg/kg/injection, schedule: Q03HX027 (ip), vehicle: saline", "value": "103 % of control"}, {"measurement": "T/C", "setting": "dose: 5.0 mg/kg/injection, schedule: Q03HX027 (ip), vehicle: saline", "value": "94 % of control"}]}, {"smiles": "O=C(O)c1cc(Cc2ccc(O)c(C(=O)O)c2)ccc1O", "note": "(tested in a mixture with another compound)", "values": [{"measurement": "T/C", "setting": "dose: 6.25 mg/kg/injection, schedule: Q01DX009 (ip), vehicle: Klucel (hydroxypropylcellulose) (HPC)", "value": "107 % of control"}, {"measurement": "T/C", "setting": "[13]", "value": "97 % of control"}, {"measurement": "T/C", "setting": "[14]", "value": "101 % of control"}, {"measurement": "T/C", "setting": "[15]", "value": "97 % of control"}, {"measurement": "T/C", "setting": "[10]", "value": "95 % of control"}]}, {"smiles": "[Cl][Co]([Cl])[Cl].[NH-]CC[N-]CC[NH-]", "values": [{"measurement": "T/C", "setting": "[7]", "value": "103 % of control"}, {"measurement": "T/C", "setting": "[8]", "value": "96 % of control"}, {"measurement": "T/C", "setting": "[9]", "value": "93 % of control"}]}, {"smiles": "c1cc[c]([Sn]([NH]c2ncnc3[nH]cnc23)([NH]c2ncnc3[nH]cnc23)[c]2ccccc2)cc1", "values": [{"measurement": "T/C", "setting": "dose: 12.5 mg/kg/injection, schedule: Q01DX009 (ip), vehicle: saline", "value": "103 % of control"}, {"measurement": "T/C", "setting": "[7]", "value": "95 % of control"}, {"measurement": "T/C", "setting": "[8]", "value": "106 % of control"}, {"measurement": "T/C", "setting": "[9]", "value": "107 % of control"}, {"measurement": "T/C", "setting": "[16]", "value": "98 % of control"}]}, {"smiles": "O=C(NC1CCCCC1)OCc1c(COC(=O)NC2CCCCC2)c(-c2ccc(Cl)c(Cl)c2)n2c1CCC2", "values": [{"measurement": "T/C", "setting": "[2]", "value": "100 % of control and 108 % of control"}, {"measurement": "T/C", "setting": "[3]", "value": "102 % of control and 105 % of control"}, {"measurement": "T/C", "setting": "[4]", "value": "95 % of control and 108 % of control"}, {"measurement": "T/C", "setting": "[5]", "value": "106 % of control and 113 % of control"}, {"measurement": "T/C", "setting": "[6]", "value": "110 % of control and 120 % of control"}]}, {"smiles": "CC(=O)NC(C=O)OCC=O", "note": "(stereo unspecified)", "values": [{"measurement": "T/C", "setting": "dose: 6.25 mg/kg/injection, schedule: Q01DX009 (ip), vehicle: water", "value": "111 % of control"}, {"measurement": "T/C", "setting": "dose: 12.5 mg/kg/injection, schedule: Q01DX009 (ip), vehicle: water", "value": "104 % of control"}, {"measurement": "T/C", "setting": "dose: 25.0 mg/kg/injection, schedule: Q01DX009 (ip), vehicle: water", "value": "97 % of control"}, {"measurement": "T/C", "setting": "dose: 50.0 mg/kg/injection, schedule: Q01DX009 (ip), vehicle: water", "value": "97 % of control"}, {"measurement": "T/C", "setting": "dose: 100.0 mg/kg/injection, schedule: Q01DX009 (ip), vehicle: water", "value": "91 % of control"}, {"measurement": "T/C", "setting": "dose: 200.0 mg/kg/injection, schedule: Q01DX009 (ip), vehicle: water", "value": "103 % of control"}]}, {"smiles": "OCC1OC(n2cnc3c(NO)ncnc32)C(O)C1O", "note": "(stereo unspecified)", "values": [{"measurement": "T/C", "setting": "[13]", "value": "102 % of control"}, {"measurement": "T/C", "setting": "[14]", "value": "97 % of control"}, {"measurement": "T/C", "setting": "[15]", "value": "109 % of control"}, {"measurement": "T/C", "setting": "[10]", "value": "105 % of control"}, {"measurement": "T/C", "setting": "[11]", "value": "110 % of control"}, {"measurement": "T/C", "setting": "[12]", "value": "109 % of control"}]}, {"smiles": "O=NN(CCCl)C(=O)Oc1ccc(OC(=O)N(CCCl)N=O)cc1", "values": [{"measurement": "T/C", "setting": "dose: 0.5 mg/kg/injection, schedule: Q01DX009 (ip), vehicle: Klucel (hydroxypropylcellulose) (HPC)", "value": "95 % of control"}, {"measurement": "T/C", "setting": "dose: 1.0 mg/kg/injection, schedule: Q01DX009 (ip), vehicle: Klucel (hydroxypropylcellulose) (HPC)", "value": "96 % of control"}, {"measurement": "T/C", "setting": "dose: 2.0 mg/kg/injection, schedule: Q01DX009 (ip), vehicle: Klucel (hydroxypropylcellulose) (HPC)", "value": "105 % of control"}, {"measurement": "T/C", "setting": "dose: 3.12 mg/kg/injection, schedule: Q01DX009 (ip), vehicle: Klucel (hydroxypropylcellulose) (HPC)", "value": "97 % of control"}, {"measurement": "T/C", "setting": "dose: 4.0 mg/kg/injection, schedule: Q01DX009 (ip), vehicle: Klucel (hydroxypropylcellulose) (HPC)", "value": "111 % of control"}]}, {"smiles": "O=S(=O)(N=N/C=C1\\C=CC=CN1O)c1cccs1", "values": [{"measurement": "T/C", "setting": "[1]", "value": "111 % of control"}, {"measurement": "T/C", "setting": "[2]", "value": "103 % of control"}, {"measurement": "T/C", "setting": "[3]", "value": "103 % of control"}, {"measurement": "T/C", "setting": "[4]", "value": "107 % of control"}]}, {"smiles": "C[n+]1c(-c2cccc3ccccc23)c2cc(N)ccc2c2ccccc21", "values": [{"measurement": "T/C", "setting": "dose: 3.12 mg/kg/injection, schedule: Q01DX009 (ip), vehicle: saline", "value": "94 % of control"}, {"measurement": "T/C", "setting": "dose: 6.25 mg/kg/injection, schedule: Q01DX009 (ip), vehicle: saline", "value": "90 % of control"}]}, {"smiles": "CC(C)NCC(O)COc1ccc(O)c(O)c1", "note": "(stereo unspecified)", "values": [{"measurement": "T/C", "setting": "[7]", "value": "93 % of control and 96 % of control"}, {"measurement": "T/C", "setting": "[8]", "value": "98 % of control and 100 % of control"}, {"measurement": "T/C", "setting": "[9]", "value": "89 % of control and 96 % of control"}, {"measurement": "T/C", "setting": "[16]", "value": "98 % of control"}]}]}
